Measured values: patent US6905841B2, “Enzymatic substrates for detecting Pseudomonas aeruginas” (Biomerieux S.A., priority 1999, dated 2005)
Where two headings read alike, the source gives them in different places.

How the values were obtained:
β-alanine aminopeptidase [1] = experiment: APIZYM-type test strips with β-alanyl-β-naphthylamide; assay type: cell-based; settings: Pseudomonas stutzeri; five strains
β-alanine aminopeptidase [2] = experiment: as above; assay type: cell-based; settings: Escherichia coli; five strains
β-alanine aminopeptidase [3] = experiment: as above; assay type: cell-based; settings: Moraxella paraphenylpyruvica; 3 strains
β-alanine aminopeptidase [4] = experiment: as above; assay type: cell-based; settings: Serratia plymuthica; five strains
β-alanine aminopeptidase [5] = experiment: as above; assay type: cell-based; settings: Serratia odorifera; five strains
β-alanine aminopeptidase [6] = experiment: as above; assay type: cell-based; settings: Chryseobacterium indologenes; five strains
β-alanine aminopeptidase [7] = experiment: as above; assay type: cell-based; settings: Proteus morganii; five strains
β-alanine aminopeptidase [8] = experiment: as above; assay type: cell-based; settings: Proteus mirabilis; five strains
β-alanine aminopeptidase [9] = assay type: cell-based; settings: out of the seventy nine (79) tested
β-alanine aminopeptidase [10] = experiment: APIZYM-type test strips with β-alanyl-β-naphthylamide; assay type: cell-based; settings: Bordetella bronchiseptica; five strains
β-alanine aminopeptidase [11] = experiment: as above; assay type: cell-based; settings: Pseudomonas mendocina; five strains
β-alanine aminopeptidase [12] = experiment: as above; assay type: cell-based; settings: Salmonella gallinarum; 3 strains
β-alanine aminopeptidase [13] = experiment: as above; assay type: cell-based; settings: Enterobacter sakazakii; five strains
β-alanine aminopeptidase [14] = experiment: as above; assay type: cell-based; settings: Chryseobacterium balustinum; 1 strain
β-alanine aminopeptidase [15] = experiment: as above; assay type: cell-based; settings: Enterobacter aerogenes; five strains
β-alanine aminopeptidase [16] = experiment: as above; assay type: cell-based; settings: Yersinia enterocolitica; five strains
β-alanine aminopeptidase [17] = experiment: as above; assay type: cell-based; settings: Psychrobacter phenylpyruvicus; 4 strains
β-alanine aminopeptidase [18] = experiment: as above; assay type: cell-based; settings: Salmonella choleraesuis; five strains
β-alanine aminopeptidase [19] = experiment: as above; assay type: cell-based; settings: Citrobacter diversus; five strains
β-alanine aminopeptidase [20] = experiment: as above; assay type: cell-based; settings: Vibrio parahaemolyticus; 4 strains
β-alanine aminopeptidase [21] = experiment: as above; assay type: cell-based; settings: Brevundimonas diminuta; five strains
β-alanine aminopeptidase [22] = experiment: as above; assay type: cell-based; settings: Providencia alcalifaciens; five strains
β-alanine aminopeptidase [23] = experiment: as above; assay type: cell-based; settings: Serratia marcescens; five strains
β-alanine aminopeptidase [24] = experiment: as above; assay type: cell-based; settings: Chryseobacterium meningosepticum; five strains
β-alanine aminopeptidase [25] = experiment: as above; assay type: cell-based; settings: Moraxella lacunata; 4 strains
β-alanine aminopeptidase [26] = experiment: as above; assay type: cell-based; settings: Edwarsiella tarda; 2 strains
β-alanine aminopeptidase [27] = experiment: as above; assay type: cell-based; settings: Sphingobacterium multivorum; five strains
β-alanine aminopeptidase [28] = experiment: as above; assay type: cell-based; settings: Moraxella bovis; 4 strains
β-alanine aminopeptidase [29] = experiment: as above; assay type: cell-based; settings: Shewanella putrefaciens; five strains
β-alanine aminopeptidase [30] = experiment: as above; assay type: cell-based; settings: Moraxella osloensis; 18 strains
β-alanine aminopeptidase [31] = settings: Enterobacter aerogenes; 2 strains tested; read after 22 to 24 hours
β-alanine aminopeptidase [32] = settings: Pseudomonas mendocina; 1 strain tested; read after 22 to 24 hours
β-alanine aminopeptidase [33] = assay type: cell-based; settings: Ochrobactrum anthropi; 1 strain tested; read after 22 to 24 hours
β-alanine aminopeptidase [34] = settings: Brevundimonas diminuta; 2 strains tested; read after 22 to 24 hours
β-alanine aminopeptidase [35] = settings: Citrobacter freundii; 2 strains tested; read after 22 to 24 hours
β-alanine aminopeptidase [36] = settings: Sphingomonas paucimobilis; 2 strains tested; read after 22 to 24 hours
β-alanine aminopeptidase [37] = settings: Proteus vulgaris; 1 strain tested; read after 22 to 24 hours
β-alanine aminopeptidase [38] = settings: Serratia liquefaciens; 1 strain tested; read after 22 to 24 hours
β-alanine aminopeptidase [39] = settings: Achromobacter xylosoxydans; 2 strains tested; read after 22 to 24 hours
β-alanine aminopeptidase [40] = settings: Shewanella algae; 1 strain tested; read after 22 to 24 hours

β-alanyl-β-naphthylamide
negative: β-alanine aminopeptidase activity, result (β-alanine aminopeptidase [1]) | β-alanine aminopeptidase activity, result (β-alanine aminopeptidase [2]) | β-alanine aminopeptidase activity, result (β-alanine aminopeptidase [3]) | β-alanine aminopeptidase activity, result (β-alanine aminopeptidase [4]) | β-alanine aminopeptidase activity, result (β-alanine aminopeptidase [5]) | β-alanine aminopeptidase activity, result (β-alanine aminopeptidase [6]) | β-alanine aminopeptidase activity, result (β-alanine aminopeptidase [7]) | β-alanine aminopeptidase activity, result (β-alanine aminopeptidase [8]) | β-alanine aminopeptidase activity, result (β-alanine aminopeptidase [10]) | β-alanine aminopeptidase activity, result (β-alanine aminopeptidase [12]) | β-alanine aminopeptidase activity, result (β-alanine aminopeptidase [13]) | β-alanine aminopeptidase activity, result (β-alanine aminopeptidase [14]) | β-alanine aminopeptidase activity, result (β-alanine aminopeptidase [15]) | β-alanine aminopeptidase activity, result (β-alanine aminopeptidase [16]) | β-alanine aminopeptidase activity, result (β-alanine aminopeptidase [17]) | β-alanine aminopeptidase activity, result (β-alanine aminopeptidase [18]) | β-alanine aminopeptidase activity, result (β-alanine aminopeptidase [19]) | β-alanine aminopeptidase activity, result (β-alanine aminopeptidase [20]) | β-alanine aminopeptidase activity, result (β-alanine aminopeptidase [21]) | β-alanine aminopeptidase activity, result (β-alanine aminopeptidase [22]) | β-alanine aminopeptidase activity, result (β-alanine aminopeptidase [23]) | β-alanine aminopeptidase activity, result (β-alanine aminopeptidase [24]) | β-alanine aminopeptidase activity, result (β-alanine aminopeptidase [25]) | β-alanine aminopeptidase activity, result (β-alanine aminopeptidase [26]) | β-alanine aminopeptidase activity, result (β-alanine aminopeptidase [27]) | β-alanine aminopeptidase activity, result (β-alanine aminopeptidase [28]) | β-alanine aminopeptidase activity, result (β-alanine aminopeptidase [29]) | β-alanine aminopeptidase activity, result (β-alanine aminopeptidase [30])
positive: β-alanine aminopeptidase activity, result (β-alanine aminopeptidase [11])
6 species: number of species found to possess β-alanine aminopeptidase activity (β-alanine aminopeptidase [9])

NCCC(=O)c1c(N)cc(Cl)c(O)c1Cl
1: Number positive results (β-alanine aminopeptidase [32]) | Number positive results (β-alanine aminopeptidase [33]) | Number of negative results (β-alanine aminopeptidase [37]) | Number positive results (β-alanine aminopeptidase [38]) | Number of negative results (β-alanine aminopeptidase [40])
2: Number of negative results (β-alanine aminopeptidase [31]) | Number of negative results (β-alanine aminopeptidase [34]) | Number of negative results (β-alanine aminopeptidase [35]) | Number of negative results (β-alanine aminopeptidase [36]) | Number of negative results (β-alanine aminopeptidase [39])
0: Number positive results (β-alanine aminopeptidase [31]) | Number of negative results (β-alanine aminopeptidase [32]) | Number of negative results (β-alanine aminopeptidase [33]) | Number positive results (β-alanine aminopeptidase [34]) | Number positive results (β-alanine aminopeptidase [35]) | Number positive results (β-alanine aminopeptidase [36]) | Number positive results (β-alanine aminopeptidase [37]) | Number of negative results (β-alanine aminopeptidase [38]) | Number positive results (β-alanine aminopeptidase [39]) | Number positive results (β-alanine aminopeptidase [40])
